Experimental data reported in US20250136555A1 (HARBIN MEDISAN PHARMACEUTICAL CO., LTD., priority 2022, published 2025).
“Also recorded” adds a separate entry of the source.

Experiments:
[1] = system: ANIT-induced cholestasis in mice; experiment: α-Naphthylisothiocyanate (ANIT)-induced cholestasis in mice; format: in vivo, C57 mice
Procedure: Animals: 25 male C57 mice, SPF grade, 8 weeks old, weighing about 20 g, purchased from Beijing Vital River. All animals maintained a 12-hour alternating circadian rhythm and were given ad libitum access to food and water. […] The mice were all fed food and water normally. The molding and administration processes were as follows: the mice in each of the administration groups were intragastrically administered the corresponding doses and types of compounds 6 h before modeling, and the mice in the control group and the model group were administered solvent controls with the same volume. When modeling, except for the control group, the mice in each group were intragastrically administered ANIT at a dose of 80 mg/kg, and the mice in the control group were administered the solvent control with the same volume. The administration was then continued for two days, once per day. Each group of mice was weighed every day, and their body weight, hair, feces, and activities were carefully observed and recorded. Forty-eight hours after giving ANIT for molding, blood was collected from the orbit, the mice were euthanized, and the liver was collected. The right lobular tissue of the liver was fixed with 4% paraformaldehyde and used for sectioning followed by HE staining. The remaining liver tissues were snap-frozen in liquid nitrogen for subsequent assays of other indexes. The whole blood was left to stand at room temperature for 2 h and centrifuged at 3000 rpm for 15 min, and serum was collected. Levels of aspartate aminotransferase (AST), alanine aminotransferase (ALT), alkaline phosphatase (ALP), total bilirubin (TBil), and total bile acid (TBA) in the serum were assayed. The fixed tissue was sent to Wuhan Servicebio Technology Co., Ltd. for preparing HE-stained sections. The test was performed using a tissue and blood alkaline phosphatase (AKP/ALP) activity assay kit (BC2145) purchased from Beijing Solarbio Science & Technology Co., Ltd. The liver tissue stored at −80° C. was taken and placed in liquid nitrogen, about 0.1 g of liver tissue was rapidly cut off, and 1 mL of an extracting solution was added. The mixture was ground thoroughly and centrifuged at 4° C. and 10000 rpm for 10 min, and the supernatant was collected for assay. The assay was performed by referring to the method in the product's instruction. Data were corrected according to protein concentrations of the samples, and the catalytic production of 1 μmol phenol per minute per milligram protein at 37° C. was defined as one enzymatic activity unit.

[2] = system: non-PPAR nuclear receptors; experiment: GAL4 hybrid reporter gene method, non-PPAR nuclear receptors (summary statement); format: cell-based; settings: 1 μM
Procedure: Reporter gene plasmids for different nuclear receptors were constructed by referring to the method in the literature (Journal of Medicinal Chemistry 2022, 65, 2571-2592). Transfection working solutions for different nuclear receptors were prepared and added into COS-7 cells. The preparation method for the transfection working solution was as follows: the constructed pBIND-Gal4-PPARα (LBD) (or pBIND-Gal4-PPARδ (LBD) plasmid or pBIND-Gal4-PPARγ (LBD) plasmid or pBIND-Gal4-RARα (LBD) plasmid or pBIND-Gal4-RARγ (LBD) plasmid or pBIND-Gal4-RARβ (LBD) plasmid or pBIND-Gal4-RORα (LBD) plasmid or pBIND-Gal4-RORγ (LBD) plasmid or pBIND-Gal4-RORβ (LBD) plasmid or pBIND-Gal4-FXR (LBD) plasmid or pBIND-Gal4-RXRα. (LBD) plasmid or pBIND-Gal4-RXRγ (LBD) plasmid or pBIND-Gal4-RXRβ (LBD) plasmid or pBIND-Gal4-VDR (LBD) plasmid or pBIND-Gal4-LXRα (LBD) plasmid or pBIND-Gal4-LXRβ (LBD) plasmid or pBIND-Gal4-[…] (LBD) plasmid or pBIND-Gal4-PXR (LBD) plasmid or pBIND-Gal4-CAR (LBD) plasmid), 15 μg of pGL4.35-9×Gal4 UAS plasmid (purchased from Promega (Beijing) Biotech Co., Ltd.), and 60 μL of a transfection reagent ([…], purchased from Wuhan ABclonal Biotechnology Co., Ltd.) were added to 2 mL of Opti-MEM, the mixture was left to stand at room temperature for 15 min, and then the working solution was obtained.

NASH model mice = experiment: NASH induced by HF-CDAA diet in mice; format: in vivo, C57 mice
[3] = system: PPARα/δ downstream target genes; experiment: Expression of PPARα/δ downstream target genes in mouse liver and skeletal muscle; format: in vivo, C57 mice; settings: mice, 0.03 and 0.1 mg/kg, three days
Procedure: C57 mice were divided into three groups, i.e., a control group, a low dose group (0.03 mg/kg), and a high dose group (0.1 mg/kg), with 6 mice in each group. Each group of mice was intragastrically administered compound 1 or a solvent control with the same volume for three consecutive days according to the doses. Three days after administration, the mice were euthanized and dissected for sampling. Liver and skeletal muscle were snap-frozen in liquid nitrogen for subsequent experiments. After extracting RNA in the liver and skeletal muscle, the up-regulation fold of the expression of the PPARα/δ downstream target genes was detected. […] Some of other compounds of the present invention also have similar effects.

C57 mice = experiment: Serum triglyceride levels in mice; format: in vivo
Procedure: Animals: 48 male C57 mice, SPF grade, 8 weeks old, weighing about 20 g, purchased from Beijing Vital River. All animals maintained a 12-hour alternating circadian rhythm and were given ad libitum access to food and water. […] Mice in the control group were administered a solvent control CMC-Na every day, and mice in each of the administration groups were administered the corresponding drug every day. Intragastric administration was performed for 5 consecutive days, and the mice were given ad libitum access to food and water during administration. Each group of mice was weighed every day, and their body weight, hair, feces, and activities were carefully observed and recorded. Two hours after administration on day 5, blood was collected from the orbit, and the mice were euthanized. The whole blood was left to stand at room temperature for 2 h and centrifuged at 3000 rpm for 15 min, and serum was collected. The serum was placed onto the automatic biochemical analyzer (Google Biotechnology Co., Ltd.) to determine the triglyceride (TG) levels in the serum.

[4] = NASH model mice, 0.1 mg/kg intragastric daily, 2 weeks
[5] = compound 1 0.1 mg/kg vs GFT505 10 mg/kg

- agonistic effect on non-PPAR nuclear receptors [2]: no significant agonistic effect
Structure (SMILES): Cc1cc(CN2C(=O)CN(c3ccc(C(F)(F)F)cc3)C2=O)cc(C)c1OC(C)(C)C(=O)O [Compound 1, 2-(4-((2,5-Dioxo-3-(4-(trifluoromethyl)phenyl)imidazolidin-1-yl)methyl)-2,6-dimethylphenoxy)-2-methylpropionic Acid]
- intrahepatic cholestasis: liver morphology and serum color (FIG. 2) ([1]; ANIT 80 mg/kg, 0.03 and 0.1 mg/kg intragastric): effectively improve intrahepatic cholestasis
- therapeutic effect on mouse cholestatic model (conclusion) ([1]; ANIT model): potent therapeutic effect
- level of intrahepatic ALP (FIG. 4) ([1]; ANIT model, 0.03 and 0.1 mg/kg): significantly down-regulate
- necrotic areas in the liver, HE staining (FIG. 5) ([1]; ANIT model, 0.03 and 0.1 mg/kg): dose-dependently reduce the number and area of necrotic areas
- serum ALP (FIG. 3) ([1]; ANIT model, 0.03 and 0.1 mg/kg): a certain tendency to reduce
- serum ALT level (FIG. 3) ([1]; ANIT model, 0.03 and 0.1 mg/kg): dose-dependently and significantly down-regulate
- serum AST level (FIG. 3) ([1]; ANIT model, 0.03 and 0.1 mg/kg): dose-dependently and significantly down-regulate
- serum TBA level (FIG. 3) ([1]; ANIT model, 0.03 and 0.1 mg/kg): dose-dependently and significantly down-regulate
- serum TBil level (FIG. 3) ([1]; ANIT model, 0.03 and 0.1 mg/kg): dose-dependently and significantly down-regulate
- ability to improve general appearance of the liver and serum color versus GFT505 ([1]; compound 1 0.03 mg/kg vs GFT505 30 mg/kg): comparable to the effect of GFT505 at 30 mg/kg
- effects on reducing hepatic enzymes, total bilirubin and total bile acid versus GFT505 ([1]; compound 1 0.1 mg/kg vs GFT505 30 mg/kg): comparable to that of GFT505 at 30 mg/kg
- effect on reducing intrahepatic ALP versus GFT505 ([1]; compound 1 at the two doses vs GFT505 30 mg/kg): slightly superior to that of GFT505 at 30 mg/kg
- pathological state of NASH mice (conclusion) (NASH model mice; 0.1 mg/kg): significantly improve the pathological state
- collagen deposition in liver, sirius red staining (FIG. 8) (NASH model mice; NASH model mice, 0.1 mg/kg): reduce collagen deposition
- inflammatory infiltration in hepatic lobules, HE staining (FIG. 7) (NASH model mice; NASH model mice, 0.1 mg/kg): reduce inflammatory infiltration
- lipid droplets in liver, oil red staining (FIG. 9) (NASH model mice; NASH model mice, 0.1 mg/kg): reduce the number and area of lipid droplets
- liver mRNA expression level of Acta2 (FIG. 12) (NASH model mice; NASH model mice, 0.1 mg/kg): inhibit the increase
- liver mRNA expression level of Ccl2 (FIG. 11) (NASH model mice; NASH model mice, 0.1 mg/kg): inhibit the increase
- liver mRNA expression level of Ccl5 (FIG. 11) (NASH model mice; NASH model mice, 0.1 mg/kg): inhibit the increase
- liver mRNA expression level of Cd11b (FIG. 11) (NASH model mice; NASH model mice, 0.1 mg/kg): inhibit the increase
- liver mRNA expression level of Col1a1 (FIG. 12) (NASH model mice; NASH model mice, 0.1 mg/kg): inhibit the increase
- liver mRNA expression level of Col3a1 (FIG. 12) (NASH model mice; NASH model mice, 0.1 mg/kg): inhibit the increase
- liver mRNA expression level of Tgfb1 (FIG. 12) (NASH model mice; NASH model mice, 0.1 mg/kg): inhibit the increase
- liver mRNA expression level of Tnf (FIG. 11) (NASH model mice; NASH model mice, 0.1 mg/kg): inhibit the increase
- triglyceride content in the liver (FIG. 10) (NASH model mice; NASH model mice, 0.1 mg/kg): reduce triglyceride accumulation
- serum ALT level (FIG. 6) (NASH model mice; [4]): down-regulated
- serum AST level (FIG. 6) (NASH model mice; [4]): down-regulated
- effect on reducing hepatic enzymes versus GFT505 (NASH model mice; [5]): slightly better effect on reducing the levels of hepatic enzymes than that of GFT505 at 10 mg/kg
- effect on reducing hepatic triglycerides versus GFT505 (NASH model mice; [5]): superior to that of GFT505 at 10 mg/kg
- effect on reducing lipid accumulation versus GFT505 (NASH model mice; [5]): superior to that of GFT505 at 10 mg/kg
- therapeutic effect in NASH mice versus GFT505 (NASH model mice; [5]): equivalent therapeutic effect to that of GFT505 at a dose of 10 mg/kg
- expression of PPARα/δ downstream target genes in liver and skeletal muscle [3]: significantly up-regulated
- triglyceride level in mouse serum (FIG. 1) (C57 mice; 1 mg/kg intragastric, 5 consecutive days): significantly reduce the triglyceride level
- effect in reducing triglycerides versus positive drugs (C57 mice; compound 1 1 mg/kg vs GFT505 1 mg/kg, pemafibrate 1 mg/kg, fenofibrate 30 mg/kg): significantly more effective in reducing triglycerides than GFT505 and pemafibrate at the equivalent dose; also recorded: superior to fenofibrate
